In brackets after ≈: the same amount, converted by molar mass. Where two headings read alike, the source gives them in different places.

Here are results for three compounds from patent US20040087633A1, “Methylidene oxazolidinone compound and preparation method thereof” (Korea Institute of Science and Technology, priority 2002, published 2004).

Holding throughout (assay): Anti-microbial activity test in vitro (agar dilution MIC)
In general terms: In agar dilution the substance is mixed into plates at graded concentrations.

For one experiment, the system named is VRE C6487. Type of experiment: cell-based, Enterococcus faecium. As to conditions: for MIC: Enterococcus, read-out: Minimum inhibition concentration (MIC). The method, then: (§1) Anti-microbial activity test in vitro
(§2) Strains were cultivated for 18 hours at 37° C. in Agar Dilution method using Mueller Hinton Agar, and then plane plates inoculated with the strains by diluting them two times gradually were aligned in a row. Minimum inhibition concentration (MIC, μg/ml) for the representative compounds of the present invention, Linezolid (LZD) and vancomycin (VAN) were decided through visual observation, and the results are shown in the following tables 2 and 3.

Another experiment concerns VRE C6488. Type of experiment: cell-based, Enterococcus faecium. As to conditions: for MIC: Enterococcus, read-out: Minimum inhibition concentration (MIC). Here is the method: as §1, §2
The next experiment relates to S. aureus ATCC 29213. Type of experiment: cell-based. To be noted: Agar Dilution method, Mueller Hinton Agar, 18 hours at 37° C. Here is the method: as §1, §2
A further experiment has as its system E. faecium C2252. It counts as cell-based. As to conditions: for MIC: Enterococcus faecium, read-out: Minimum inhibition concentration (MIC). The method, then:
as §1, §2

A further experiment deals with S. epidermidis C2230. It counts as cell-based. As to conditions: for MIC: Staphylococcus epidermidis, read-out: Minimum inhibition concentration (MIC). The method, then: as §1, §2
For another experiment, the system named is S. epidermidis ATCC12228. It counts as cell-based. As to conditions: for MIC: Staphylococcus epidermidis, read-out: Minimum inhibition concentration (MIC). Here is the method: as §1, §2
Another experiment relates to E. faecalis ATCC29212. Type of experiment: cell-based. As to conditions: for MIC: Enterococcus faecalis, read-out: Minimum inhibition concentration (MIC). Here is the method:
as §1, §2

A further experiment relates to E. faecalis C6288. It counts as cell-based. To be noted: for MIC: Enterococcus faecalis, read-out: Minimum inhibition concentration (MIC). The method, then:
as §1, §2

The next experiment has as its system S. pyogenes C6012. It counts as cell-based. As to conditions: for MIC: Streptococcus pyogenes, read-out: Minimum inhibition concentration (MIC). Here is the method: as §1, §2
Another experiment concerns E. faecalis C6291. It counts as cell-based. As to conditions: for MIC: Enterococcus faecalis, read-out: Minimum inhibition concentration (MIC). The method, then:
as §1, §2

In another experiment the test system is S. pyogenes ATCC8668. It counts as cell-based. To be noted: for MIC: Streptococcus pyogenes, read-out: Minimum inhibition concentration (MIC). The method, then: as §1, §2
Another experiment deals with E. faecium C6301. Type of experiment: cell-based. As to conditions: for MIC: Enterococcus faecium, read-out: Minimum inhibition concentration (MIC). The method, then: as §1, §2
A further experiment deals with S. epidermidis C2235. Type of experiment: cell-based. As to conditions: for MIC: Staphylococcus epidermidis, read-out: Minimum inhibition concentration (MIC). The method, then: as §1, §2
The next experiment concerns S. pyogenes C6003. It counts as cell-based. As to conditions: for MIC: Streptococcus pyogenes, read-out: Minimum inhibition concentration (MIC). The method, then:
as §1, §2

The next experiment has as its system CRSA C6043. It counts as cell-based, Staphylococcus aureus. As to conditions: for MIC: Staphylococcus aureus, read-out: Minimum inhibition concentration (MIC). Here is the method: as §1, §2
Another experiment relates to MSSA C7142. It counts as cell-based, Staphylococcus aureus. To be noted: for MIC: Staphylococcus aureus, read-out: Minimum inhibition concentration (MIC). Here is the method:
as §1, §2

The test system of the next experiment is MRSA C5100. It counts as cell-based, Staphylococcus aureus. As to conditions: for MIC: Staphylococcus aureus, read-out: Minimum inhibition concentration (MIC). Here is the method:
as §1, §2

A further experiment relates to MSSA C2214. Type of experiment: cell-based, Staphylococcus aureus. As to conditions: for MIC: Staphylococcus aureus, read-out: Minimum inhibition concentration (MIC). The method, then: as §1, §2
The subject of another experiment is CRSA C1062. Type of experiment: cell-based, Staphylococcus aureus. To be noted: for MIC: Staphylococcus aureus, read-out: Minimum inhibition concentration (MIC). The method, then: as §1, §2
Another experiment concerns MRSA C6068. Type of experiment: cell-based, Staphylococcus aureus. To be noted: for MIC: Staphylococcus aureus, read-out: Minimum inhibition concentration (MIC). The method, then: as §1, §2
Another experiment has as its system MRSA C2207. It counts as cell-based, Staphylococcus aureus. To be noted: for MIC: Staphylococcus aureus, read-out: Minimum inhibition concentration (MIC). The method, then: as §1, §2
Setting [1] is: VRE C6487, Agar Dilution method, Mueller Hinton Agar, 18 hours at 37° C.
[2] abbreviates: VRE C6488, Agar Dilution method, Mueller Hinton Agar, 18 hours at 37° C.
Where [3] appears, read: E. faecium C2252, Agar Dilution method, Mueller Hinton Agar, 18 hours at 37° C.
[4] abbreviates: S. epidermidis C2230, Agar Dilution method, Mueller Hinton Agar, 18 hours at 37° C.
Where [5] appears, read: S. epidermidis ATCC12228, Agar Dilution method, Mueller Hinton Agar, 18 hours at 37° C.
[6] abbreviates: E. faecalis ATCC29212, Agar Dilution method, Mueller Hinton Agar, 18 hours at 37° C.
Where [7] appears, read: E. faecalis C6288, Agar Dilution method, Mueller Hinton Agar, 18 hours at 37° C.
The mark [8] stands for this setting: S. pyogenes C6012, Agar Dilution method, Mueller Hinton Agar, 18 hours at 37° C.
Setting [9] is: E. faecalis C6291, Agar Dilution method, Mueller Hinton Agar, 18 hours at 37° C.
The mark [10] stands for this setting: S. pyogenes ATCC8668, Agar Dilution method, Mueller Hinton Agar, 18 hours at 37° C.
Setting [11] is: E. faecium C6301, Agar Dilution method, Mueller Hinton Agar, 18 hours at 37° C.
Where [12] appears, read: S. epidermidis C2235, Agar Dilution method, Mueller Hinton Agar, 18 hours at 37° C.
The mark [13] stands for this setting: S. pyogenes C6003, Agar Dilution method, Mueller Hinton Agar, 18 hours at 37° C.
The mark [14] stands for this setting: CRSA C6043, Agar Dilution method, Mueller Hinton Agar, 18 hours at 37° C.
The mark [15] stands for this setting: MSSA C7142, Agar Dilution method, Mueller Hinton Agar, 18 hours at 37° C.
Setting [16] is: MRSA C5100, Agar Dilution method, Mueller Hinton Agar, 18 hours at 37° C.
Where [17] appears, read: MSSA C2214, Agar Dilution method, Mueller Hinton Agar, 18 hours at 37° C.
[18] abbreviates: CRSA C1062, Agar Dilution method, Mueller Hinton Agar, 18 hours at 37° C.
The mark [19] stands for this setting: MRSA C6068, Agar Dilution method, Mueller Hinton Agar, 18 hours at 37° C.
The mark [20] stands for this setting: MRSA C2207, Agar Dilution method, Mueller Hinton Agar, 18 hours at 37° C.

As to `CCOC(=O)C(C#N)=C1CCN(c2ccc(N3C[C@H](CNC(C)=O)OC3=O)cc2F)CC1` [Compound 7, N-[[(5S)-3-[3-fluoro-4-((4-(1-ethoxycarbonyl-1-cyano)-methylidene)piperidinyl)phenyl]-2-oxo-5-oxazolidinyl]methyl]acetamide], the “Minimum inhibition concentration (MIC)” value in the experiment on VRE C6487 (setting [1]) was found to be 2 µg/mL (≈ 4.5 µM); with VRE C6488 (setting [2]), 2 µg/mL (≈ 4.5 µM); with S. aureus ATCC 29213, 4 µg/mL (≈ 9 µM); in the experiment on E. faecium C2252 (setting [3]), 4 µg/mL (≈ 9 µM); in the experiment with S. epidermidis C2230 (setting [4]), 2 µg/mL (≈ 4.5 µM); in the experiment with S. epidermidis ATCC12228 (setting [5]), 1 µg/mL (≈ 2.25 µM). Besides, the “Minimum inhibition concentration (MIC)” value in the experiment on E. faecalis ATCC29212 (setting [6]) is 4 µg/mL (≈ 9 µM); with E. faecalis C6288 (setting [7]) it was 4 µg/mL (≈ 9 µM); in the experiment on S. pyogenes C6012 (setting [8]) it was 1 µg/mL (≈ 2.25 µM); with E. faecalis C6291 (setting [9]) it was 4 µg/mL (≈ 9 µM); in the experiment on S. pyogenes ATCC8668 (setting [10]) it was 1 µg/mL (≈ 2.25 µM); in the experiment with E. faecium C6301 (setting [11]) it was 2 µg/mL (≈ 4.5 µM). In addition, the “Minimum inhibition concentration (MIC)” value with S. epidermidis C2235 (setting [12]) turned out to be 2 µg/mL (≈ 4.5 µM); with S. pyogenes C6003 (setting [13]), 4 µg/mL (≈ 9 µM); in the experiment with CRSA C6043 (setting [14]), 4 µg/mL (≈ 9 µM); in the experiment with MSSA C7142 (setting [15]), 4 µg/mL (≈ 9 µM); in the experiment on MRSA C5100 (setting [16]), 4 µg/mL (≈ 9 µM); in the experiment on MSSA C2214 (setting [17]), 4 µg/mL (≈ 9 µM). Further, the “Minimum inhibition concentration (MIC)” value in the experiment on CRSA C1062 (setting [18]), in the experiment on MRSA C6068 (setting [19]) and with MRSA C2207 (setting [20]) was 4 µg/mL (≈ 9 µM) in each case.
Regarding `CC(=O)NC[C@H]1CN(c2ccc(N3CCOCC3)c(F)c2)C(=O)O1` [LZD, Linezolid, reference compound], the MIC in the experiment on VRE C6487 (setting [1]) is 2 µg/mL (≈ 5.93 µM); in the experiment with VRE C6488 (setting [2]) it was 2 µg/mL (≈ 5.93 µM); in the experiment on E. faecium C2252 (setting [3]), 2 µg/mL (≈ 5.93 µM); with S. epidermidis C2230 (setting [4]) it was 2 µg/mL (≈ 5.93 µM); with S. epidermidis ATCC12228 (setting [5]) it was 0.5 µg/mL (≈ 1.48 µM); in the experiment with E. faecalis ATCC29212 (setting [6]), 4 µg/mL (≈ 11.9 µM). For the same compound, the MIC turned out to be 2 µg/mL (≈ 5.93 µM) with E. faecalis C6288 (setting [7]); 0.5 µg/mL (≈ 1.48 µM) in the experiment with S. pyogenes C6012 (setting [8]); 2 µg/mL (≈ 5.93 µM) in the experiment on E. faecalis C6291 (setting [9]); 0.5 µg/mL (≈ 1.48 µM) in the experiment with S. pyogenes ATCC8668 (setting [10]); 2 µg/mL (≈ 5.93 µM) with E. faecium C6301 (setting [11]); 2 µg/mL (≈ 5.93 µM) in the experiment with S. epidermidis C2235 (setting [12]). The MIC in the experiment on S. pyogenes C6003 (setting [13]) was 2 µg/mL (≈ 5.93 µM); in the experiment on CRSA C6043 (setting [14]), 2 µg/mL (≈ 5.93 µM); with MSSA C7142 (setting [15]), 4 µg/mL (≈ 11.9 µM); in the experiment on MRSA C5100 (setting [16]), 2 µg/mL (≈ 5.93 µM); in the experiment with MSSA C2214 (setting [17]), 4 µg/mL (≈ 11.9 µM); in the experiment with CRSA C1062 (setting [18]), 4 µg/mL (≈ 11.9 µM). The MIC in the experiment on MRSA C6068 (setting [19]) is 2 µg/mL (≈ 5.93 µM); with MRSA C2207 (setting [20]) it was 4 µg/mL (≈ 11.9 µM).
With `CN[C@H](CC(C)C)C(=O)N[C@H]1C(=O)N[C@@H](CC(N)=O)C(=O)N[C@H]2C(=O)N[C@H]3C(=O)N[C@H](C(=O)N[C@H](C(=O)O)c4cc(O)cc(O)c4-c4cc3ccc4O)[C@H](O)c3ccc(c(Cl)c3)Oc3cc2cc(c3O[C@@H]2O[C@H](CO)[C@@H](O)[C@H](O)[C@H]2O[C@H]2C[C@](C)(N)[C@H](O)[C@H](C)O2)Oc2ccc(cc2Cl)[C@H]1O` [VAN, vancomycin, reference compound], the MIC is greater than 32 µg/mL with VRE C6487 (VRE, 18 h); greater than 32 µg/mL in the experiment on VRE C6488 (VRE, 18 h); 1 µg/mL (≈ 0.69 µM) in the experiment on E. faecium C2252 (C2252, 18 h); 2 µg/mL (≈ 1.38 µM) in the experiment on S. epidermidis C2230 (C2230, 18 h); 1 µg/mL (≈ 0.69 µM) in the experiment with S. epidermidis ATCC12228 (ATCC12228, 18 h); 4 µg/mL (≈ 2.76 µM) with E. faecalis ATCC29212 (ATCC29212, 18 h). Moreover, the MIC was 2 µg/mL (≈ 1.38 µM) in the experiment with E. faecalis C6288 (C6288, 18 h); 0.5 µg/mL (≈ 0.345 µM) in the experiment with S. pyogenes C6012 (C6012, 18 h); 2 µg/mL (≈ 1.38 µM) in the experiment on E. faecalis C6291 (C6291, 18 h); 0.12 µg/mL (≈ 0.0828 µM) in the experiment with S. pyogenes ATCC8668 (ATCC8668, 18 h); 1 µg/mL (≈ 0.69 µM) in the experiment on E. faecium C6301 (C6301, 18 h); 2 µg/mL (≈ 1.38 µM) with S. epidermidis C2235 (C2235, 18 h). Further, the MIC in the experiment on S. pyogenes C6003 (C6003, 18 h) was 4 µg/mL (≈ 2.76 µM); with CRSA C6043 (18 h), 2 µg/mL (≈ 1.38 µM); in the experiment with MSSA C7142 (MSSA, 18 h), 2 µg/mL (≈ 1.38 µM); in the experiment with MRSA C5100 (MRSA, 18 h) it was 2 µg/mL (≈ 1.38 µM); with MSSA C2214 (MSSA, 18 h), 1 µg/mL (≈ 0.69 µM); in the experiment with CRSA C1062 (18 h), 2 µg/mL (≈ 1.38 µM). Also, the MIC in the experiment with MRSA C6068 (MRSA, 18 h) is 1 µg/mL (≈ 0.69 µM); with MRSA C2207 (MRSA, 18 h), 1 µg/mL (≈ 0.69 µM).
